Here are results for ten molecules from patent US9079970B2, “Methods and compositions for specific modulation of MCL-1” (Dana Farber Cancer Institute, Inc., priority 2008, dated 2015).

One experiment concerns the target recombinant BCL-XLΔC (Homo sapiens, UniProt Q07817). The experiment is described as follows: Fluorescence polarization direct binding of FITC-SAHBs to BCL-XLΔC. The settings on record: FPA. How it is done: (§1) Binding assays were performed as previously described (Pitter et al., Methods Enzymol 446, 387 (2008). Briefly, FITC-SAHB (50 nM) was added to serial dilutions of FPLC-purified recombinant protein in binding buffer (50 mM Tris, 100 mM NaCl, pH 8.0). For competition assays, serial dilutions of acetylated MCL-1 SAHBs were mixed with FITC-BAK SAHB (25 nM), followed by addition of MCL-1ΔNΔC (100 nM) diluted in binding buffer (50 mM Tris, 100 mM NaCl, pH 8.0). Multiwell plates were incubated in the dark at room temperature until equilibrium was reached and fluorescence polarization (mP units) was measured by microplate reader (SpectraMax, Molecular Devices). For direct binding experiments, dissociation constants (KD) were calculated by nonlinear regression analysis of dose-response curves using Prism software (Graphpad). For competition experiments, Ki values were determined by nonlinear regression analysis of dose-response curves using a one-site competition model.
Recombinant carboxy-terminal deleted anti-apoptotic proteins were expressed using the pGEX-4T vector, and purified as described for rMCL-1. The purified proteins were incubated with FITC-SAHBs, and binding affinities were analyzed by fluorescence polarization assay as described above. […] Optionally, design and optimization of tailored SAHB compounds for anti-apoptotic targeting also employed computational modeling.

Experiment [1] has as its system MCL-1ΔNΔC, BCL-2ΔC, BCL-XLΔC, BCL-wΔC and BFL-1/A1ΔC. The experiment is described as follows: FPA selectivity across panel of anti-apoptotic proteins. It is filed as binding. The settings on record: FPA against anti-apoptotic panel. The procedure: as §1
Compounds that bound MCL-1 with high affinity were analyzed for MCL-1 selectivity by measuring SAHB affinities for recombinant BCL-XLΔC, BCL-WΔC and BFL-1/A1ΔC (FIG. 8B). Recombinant carboxy-terminal deleted anti-apoptotic proteins were expressed using the pGEX-4T vector, and purified as described for rMCL-1. The purified proteins were incubated with FITC-SAHBs, and binding affinities were analyzed by fluorescence polarization assay as described above. […] Optionally, design and optimization of tailored SAHB compounds for anti-apoptotic targeting also employed computational modeling.
After the experiments set forth above, further members of the library of stabilized alpha-helices of BCL-2 domains (SAHBs) modeled after the BH3 domains of BCL-2 family proteins were generated in order to identify potent and selective inhibitors of MCL-1. The native alpha-helical structure of BH3 domains was reinforced by incorporating non-natural amino acids containing olefin tethers at the (i, i+4) positions of the non-interacting face, followed by ruthenium catalyzed olefin metathesis to yield a panel of stapled BH3 domains (FIG. 7). Fluorescence polarization assays (FPA) were performed to measure the binding affinity of fluorescently labeled SAHBs for recombinant human MCL-1ΔNΔC (amino acids 172-320), a deletion construct that contains the BH3-binding pocket and affords enhanced expression, purity, and stability. […] To identify MCL-1-selective SAHBs, we first screened for recombinant BCL-XLΔC binding, which eliminated PUMA, BID, BIM, BOK, BAX, and BAK SAHBs and then for recombinant BFL1/A1ΔC binding, which eliminated NOXA SAHB.

Experiment [2] relates to Jurkat T-cell leukemia cells. The experiment is described as follows: Cell viability by MTT assay, Jurkat. The experiment is classed as cell-based. How it is done:
(§2) For viability testing, OPM2 and Jurkat cells (4×10^4) were treated with the indicated agents in Opti-MEM media at 37° C. in a final volume of 100 μL. Cell viability was measured at 24 hours by MTT assay, for which cells were incubated with 20 μL thiazolyl blue tetrazolium bromide (5 mg/mL in DPBS) at 37° C. for 4 hours, the precipitate solubilized with 0.1 N HCl isopropanol (100 μL), and absorbance measured at 570 nm and 650 nm.

Experiment [3] deals with OPM2 multiple myeloma cells. The experiment is described as follows: Cell viability by MTT assay, OPM2. It is filed as cell-based. As to conditions: MTT at 24 hours. The procedure:
as §2, with “OPM2 multiple myeloma cells and Jurkat T-cell leukemia were passaged and maintained in RPMI 1640 medium (Invitrogen) supplemented with 10% fetal bovine serum, 100 U/mL penicillin, 100 μg/mL streptomycin, 2 mM L-glutamine, 50 mM HEPES and 50 μM β-mercaptoethanol. For” for “For”

“Also recorded” adds a separate entry of the source. Where a SMILES comes first, the peptide text is derived from it. Bridges are numbered along the chain shown (N, C = ends). [ ]: non-standard residue; d: D form. The star is where a group is joined. S5 = C=CCCC[C@](C)(N)C(=O)O; Nle = CCCC[C@H](N)C(=O)O; Cbz = O=C(OCc1ccccc1)*; CH2F = FC*

Chain of recombinant BCL-XLΔC (Q07817 1-209, stated change not applied): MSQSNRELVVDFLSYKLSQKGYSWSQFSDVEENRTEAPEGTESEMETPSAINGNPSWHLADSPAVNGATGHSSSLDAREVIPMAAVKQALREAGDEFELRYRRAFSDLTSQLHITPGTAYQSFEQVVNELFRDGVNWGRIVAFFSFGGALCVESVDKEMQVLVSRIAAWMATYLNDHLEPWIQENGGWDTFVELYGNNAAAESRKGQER

As to `CC[C@H](C)[C@@H]1NC(=O)[C@@](C)(NC(=O)[C@H](C)NC(=O)[C@H](CC(C)C)NC(=O)[C@H](CCC(N)=O)NC(=O)[C@H](CCCNC(=N)N)NC(=O)CNC(=O)[C@@H](NC(=O)[C@@H](N)CCC(N)=O)C(C)C)CCCC=CCCC[C@@](C)(C(=O)N[C@H](C(=O)N[C@@H](CC(N)=O)C(=O)N[C@@H](CCCNC(=N)N)C(=O)N[C@@H](CCCNC(=N)N)C(=O)N[C@@H](Cc2ccc(O)cc2)C(=O)N[C@@H](CC(=O)O)C(N)=O)[C@@H](C)CC)NC(=O)[C@H](CC(=O)O)NC(=O)CNC1=O` [BAK SAHB] (H-QVGRQLA[S5]IGD[S5]INRRYD-NH2; staple 8-12; C-terminus assumed), the “BCL-XL binding” value on recombinant BCL-XLΔC is “eliminated”. For the same molecule, the “binding selectivity among anti-apoptotic proteins” value in experiment [1] is “high affinity pan-anti-apoptotic binders”.
For `CC[C@H](C)[C@@H]1NC(=O)[C@@](C)(NC(=O)[C@H](CCCCN)NC(=O)[C@H](CC(C)C)NC(=O)[C@H](CO)NC(=O)[C@H](CCC(=O)O)NC(=O)[C@H](CO)NC(=O)[C@H](CC(C)C)NC(=O)[C@H](CCCCN)NC(=O)[C@H](CCCCN)NC(=O)[C@@H](NC(=O)[C@H](CO)NC(=O)[C@H](C)N)[C@@H](C)O)CCCC=CCCC[C@@](C)(C(=O)N[C@@H](CC(C)C)C(=O)N[C@@H](CC(=O)O)C(=O)N[C@@H](CO)C(=O)N[C@@H](CC(N)=O)C(N)=O)NC(=O)[C@H](CC(=O)O)NC(=O)CNC1=O` [BAX SAHB] (H-ASTKKLSESLK[S5]IGD[S5]LDSN-NH2; staple 12-16; C-terminus assumed), the “BCL-XL binding” value at recombinant BCL-XLΔC is on record as “eliminated”.
Same read-out and setting: in the case of `CCCC[C@H](NC(=O)[C@]1(C)CCCC=CCCC[C@](C)(NC(=O)[C@H](C)NC(=O)[C@H](CC(C)C)NC(=O)[C@H](Cc2c[nH]cn2)NC(=O)[C@H](CCCNC(=N)N)NC(=O)[C@H](C)NC(=O)[C@@H](NC(=O)[C@H](CC(N)=O)NC(=O)[C@H](CCCNC(=N)N)NC(=O)[C@@H](NC(=O)[C@@H](NC(=O)[C@@H](N)CC(=O)O)[C@@H](C)CC)[C@@H](C)CC)[C@@H](C)CC)C(=O)N[C@@H](C(C)C)C(=O)NCC(=O)N[C@@H](CC(=O)O)C(=O)N1)C(=O)N[C@@H](CC(=O)O)C(=O)N[C@@H](CCCNC(=N)N)C(=O)N[C@@H](CO)C(=O)N[C@H](C(=O)N[C@@H](CCCNC(=N)N)C(=O)N[C@@H](CCCNC(=N)N)C(N)=O)[C@@H](C)CC` [BID SAHB] (H-DIIRNIARHLA[S5]VGD[S5][Nle]DRSIRR-NH2; staple 12-16; C-terminus assumed) it was “eliminated”.
Turning to `CC[C@H](C)[C@H](N)C(=O)N[C@@H](Cc1c[nH]c2ccccc12)C(=O)N[C@H](C(=O)N[C@@H](C)C(=O)N[C@@H](CCC(N)=O)C(=O)N[C@@H](CCC(=O)O)C(=O)N[C@@H](CC(C)C)C(=O)N[C@@H](CCCNC(=N)N)C(=O)N[C@@]1(C)CCCC=CCCC[C@@](C)(C(=O)N[C@@H](Cc2ccccc2)C(=O)N[C@@H](CC(N)=O)C(=O)N[C@@H](C)C(=O)N[C@@H](Cc2ccc(O)cc2)C(=O)N[C@@H](Cc2ccc(O)cc2)C(=O)N[C@@H](C)C(=O)N[C@@H](CCCNC(=N)N)C(=O)N[C@@H](CCCNC(=N)N)C(N)=O)NC(=O)[C@H](CC(=O)O)NC(=O)CNC(=O)[C@H]([C@@H](C)CC)NC1=O)[C@@H](C)CC` [BIM SAHB], the “BCL-XL binding” value on recombinant BCL-XLΔC is on record as “eliminated”. The “binding selectivity among anti-apoptotic proteins” value in experiment [1] is recorded as “pan-anti-apoptotic binder”.
As to `CCCC[C@H](NC(=O)[C@H](CCC(=O)O)NC(=O)[C@H](CC(C)C)NC(=O)[C@]1(C)CCCC=CCCC[C@](C)(NC(=O)[C@H](CC(C)C)NC(=O)[C@H](CC(C)C)NC(=O)[C@@H](NC(=O)[C@H](C)NC(=O)[C@H](CO)NC(=O)[C@@H](NC(=O)[C@H](CCC(=O)O)NC(=O)[C@H](C)NC(=O)[C@H](CC(C)C)NC(=O)[C@@H](N)CCCNC(=N)N)C(C)C)C(C)C)C(=O)N[C@@H](CC(C)C)C(=O)NCC(=O)N[C@@H](CC(=O)O)C(=O)N1)C(=O)N[C@H](C(=O)N[C@@H](CCCNC(=N)N)C(N)=O)[C@@H](C)CC` [BOK SAHB] (H-RLAEVSAVLL[S5]LGD[S5]LE[Nle]IR-NH2; staple 11-15; C-terminus assumed), the “BCL-XL binding” value at recombinant BCL-XLΔC is on record as “eliminated”. Also, the “binding selectivity among anti-apoptotic proteins” value in experiment [1] is given as “significant preference for MCL-1 over the other anti-apoptotics”.
On to `CCCC[C@@H]1NC(=O)[C@@](C)(NC(=O)[C@H](CCCNC(=N)N)NC(=O)[C@H](CC(C)C)NC(=O)[C@H](CCC(N)=O)NC(=O)[C@H](C)NC(=O)CNC(=O)[C@@H](NC(=O)[C@H](CCC(=O)O)NC(=O)[C@H](CCCNC(=N)N)NC(=O)[C@H](C)NC(=O)[C@H](Cc2c[nH]c3ccccc23)NC(=O)[C@@H](N)CCC(N)=O)[C@@H](C)CC)CCCC=CCCC[C@@](C)(C(=O)N[C@@H](CC(C)C)C(=O)N[C@@H](CC(N)=O)C(=O)N[C@@H](C)C(=O)N[C@@H](CCC(N)=O)C(=O)N[C@@H](Cc2ccc(O)cc2)C(N)=O)NC(=O)[C@H](CC(=O)O)NC(=O)[C@H](C)NC1=O` [PUMA SAHB] (H-QWAREIGAQLR[S5][Nle]AD[S5]LNAQY-NH2; staple 12-16; C-terminus assumed), for which the “BCL-XL binding” value at recombinant BCL-XLΔC is “eliminated”.
Consider `CC(NC(=O)C(NC(=O)OCc1ccccc1)C(C)C)C(=O)NC(CC(=O)O)C(=O)CF` (stereo not drawn) [z-VAD, reference compound] (Cbz-Val-Ala-Asp-CH2F; configuration not given here), for which the “effect of pan-caspase inhibitor on MCL-1 SAHBD-induced sensitization” value in experiment [2] (z-VAD 50 μM with MCL-1 SAHBD plus TRAIL/FasL, Jurkat and OPM2 cells) is recorded as “completely abrogated the negative effects on cell viability”.
With LEVESXTQLXRFGDKLNFRQKL [NOXA SAHBB], the “binding selectivity among anti-apoptotic proteins” value in experiment [1] was “binds MCL-1ΔNΔC exclusively; also recorded: potent and exclusive MCL-1ΔNΔC binding activity”. The “sensitization of Jurkat cells to FasL” value in experiment [2] (combined with low dose FasL, MTT at 24 hours) is “behaved identically to MCL-1 SAHBD; also recorded: sensitized the apoptotic response of Jurkat cells to TRAIL and FasL”. In addition, the “sensitization of Jurkat cells to TRAIL” value in experiment [2] (combined with low dose TRAIL, MTT at 24 hours) is “behaved identically to MCL-1 SAHBD; also recorded: sensitized the apoptotic response of Jurkat cells to TRAIL and FasL”.

B1: FasL: death receptor agonist, extrinsic pathway activator (protein, UniProt P48023 130-281, looked up)
Tumor necrosis factor ligand …: QIGHPSPPPEKKELRKVAHLTGKSNSRSMPLEWEDTYGIVLLSGVKYKKGGLVINETGLYFVYSKVYFRGQSCNNLPLSHKVYMRNSKYPQDLVMMEGKMMSYCTTGQMWARSSYLGAVFNLTSADHLYVNVSELSLVNFEESQTFFGLYKL
As for B1, the “Jurkat cell viability, single agent” value in experiment [2] (MTT at 24 hours) is on record as “dose-responsive cytotoxicity; also recorded: only Jurkat cells were sensitive to FasL”. Further, the “OPM2 cell viability, single agent” value in experiment [3] was “sensitive to TRAIL but not FasL; also recorded: only Jurkat cells were sensitive to FasL”.

B2: TRAIL: death receptor agonist, extrinsic pathway activator (protein, UniProt P50591 1-281, looked up)
Tumor necrosis factor ligand …: MAMMEVQGGPSLGQTCVLIVIFTVLLQSLCVAVTYVYFTNELKQMQDKYSKSGIACFLKEDDSYWDPNDEESMNSPCWQVKWQLRQLVRKMILRTSEETISTVQEKQQNISPLVRERGPQRVAAHITGTRGRSNTLSSPNSKNEKALGRKINSWESSRSGHSFLSNLHLRNGELVIHEKGFYYIYSQTYFRFQEEIKENTKNDKQMVQYIYKYTSYPDPILLMKSARNSCWSKDAEYGLYSIYQGGIFELKENDRIFVSVTNEHLIDMDHEASFFGAFLVG
For the molecule B2, the “Jurkat cell viability, single agent” value in experiment [2] (MTT at 24 hours) is reported as “dose-responsive cytotoxicity; also recorded: induced apoptosis”. Besides, in experiment [3], the “OPM2 cell viability, single agent” value is reported as “sensitive to TRAIL; also recorded: induced apoptosis”.
